Laboratory results published in EP1064940A1, “Antiviral therapy” (Universitair Medisch Centrum Utrecht, priority 1999, dated 2001).

Columns and labels:
Type in all cases: cell-based
HIV-1Ba-L = assay: HIV-1 infection of monocyte-derived macrophages, p24-core antigen ELISA; settings: Human immunodeficiency virus 1, Macrophage, MDM infected with HIV-1Ba-L, multiplicity of infection 0.02
Experimental: Cells are washed twice and monocytes are purified by countercurrent centrifugal elutriation. Cells are >98% monocytes by criteria of cell morphology on May-Grunwald-Giemsa-stained cytosmears and by nonspecific esterase staining using alpha-naphtylacetate (Sigma Chemical Co., St. Louis, MO) as substrate.
(§1) HIV-1 strain Ba-L is grown to high titer in MDM. The 50% tissue culture infectious dose (TCID50) of the virus stock is determined by endpoint dilution with serial fourfold dilutions in a 96-well microtiter plate on MDM. HIV-1 strain AT is grown to high titer in PHA-stimulated PBMC. The TCID50 of the virus stock is determined by endpoint dilution with serial fourfold dilutions in a 96-well microtiter plate on PBMC.
PBMC were washed twice and monocytes were purified by countercurrent centrifugal elutriation. […] Concentrations above 0.3 µM APHS inhibit p24 production. 30 µM APHS inhibits HIV-1 replication by 88%.

[1] = system: Monocyte-derived macrophages (MDM); assay: MTT cytotoxicity assay in monocyte-derived macrophages; settings: 4 days incubation in different concentrations
Experimental: Cell viability is assessed by the MTT assay. In short, cells are incubated with MTT 3-(4,5-dimethylthiazol-2-yl)-2,5-diphenyltetrazollumbromide (Sigma) for 2 hours at 37 °C. During this time viable cells convert MTT into […] formazan dyes. Afterwards crystals are solubilised with a solution containing isopropanol. The OD of the supernatant is measured at 550 nm.
Fig 3 - Monocyte-derived macrophages (MDM) were obtained like described in legend of Fig.2. […] After a 4 days incubation period cellular viability was assessed by MTT cytotoxicity assay where viable cells convert MTT into a colored formazan dye that can be measured spectrophotometrically.

HIV-1 = HIV-1 infection of PHA-stimulated PBMC, p24-core antigen ELISA (strain not specified in the result); settings: Human immunodeficiency virus 1; PHA-stimulated PBMC infected with HIV-1AT or HIV-1BaL; p24 after 4 and 5 days; read-out: Concentrations that inhibit HIV-1 production
Experimental: as §1

HIV-1BaL = HIV-1BaL infection of PHA-stimulated PBMC, p24-core antigen ELISA
Experimental: as §1

PBMC = assay: WST-1 cytotoxicity assay in PBMC; settings: 5 days incubation
Experimental: Cell viability is assessed with WST-1 assay. Cells are incubated with the tetrazolium salt WST-1 (4-[3-(4-lodophenyl)-2-(4-nitrophenyl)-2H-5-tetrazolio]-1,3-benzene disulfonate) for 2 hours at 37 °C. During this time viable cells convert WST-1 into water soluble formazan dyes. The OD of the supernatant is measured at 550 nm.
Fig 5 - PBMC were obtained and stimulated as described in legend of Fig. 4. […] After a 5 days incubation period cellular viability was assessed by WST-1 cytotoxicity assay where viable cells convert WST-1 into a coloured formazan dye that can be measured spectrophotometrically.

CCCCC#CCSc1ccccc1OC(C)=O [APHS, o-(acetoxy-phenyl)hept-2-ynyl sulphide]
inhibition at 30 µM (HIV-1Ba-L; 30 µM APHS, read-out: inhibits HIV-1 replication by): 88% | minimal effective concentration (HIV-1Ba-L; supernatant after 4 and 5 days, read-out: Concentrations that inhibit p24 production): > 0.3 µM | cytotoxicity (cellular viability, MTT) [1]: None of the tested concentrations of APHS was found to be cytotoxic | minimal effective concentration (HIV-1): > 1 µM | inhibition at 1 µM (HIV-1BaL; Human immunodeficiency virus 1, 1 µM APHS, when infectivity is lower (Fig 4c), read-out: inhibit HIV-1BaL production by): 50% | inhibition at 30 µM (HIV-1BaL; Human immunodeficiency virus 1, 30 µM APHS, read-out: inhibit HIV-1BaL replication by): 100% | Concentrations found to reduce viability (PBMC): ≥ 100 µM
